Reference: article PMC10135050, “Neutralizing Carbapenem Resistance by Co-Administering Meropenem with Novel β-Lactam-Metallo-β-Lactamase Inhibitors” (Antibiotics, 2023)
Values after ≈ are worked out from the molar mass of the structure shown. Read-outs that look alike come from different tables or passages of the source.

How the values were obtained:
[1] = tested on: Enterobacter cloacae KAR (VIM-1); assay: MIC, broth microdilution and checkerboard assay; format: cell-based
Experimental: (§1) The Minimum Inhibitory Concentration (MIC) of meropenem BP2 was determined utilizing the broth microdilution assay, as described by the Clinical and Laboratory Standards Institute (CLSI) antimicrobial susceptibility guidelines. The mono-therapeutic effect of each antibiotic and MBLI was evaluated across a panel of MBL-producing Enterobacterales.
(§2) The drug susceptibility profile of meropenem in combination with BP2 was studied using the checkerboard assay. This assay was used to ascertain the effect of two drugs on antimicrobial resistance targeting CRE strains. The assay was performed according to the protocol described previously and was under CLSI antimicrobial susceptibility guidelines. Briefly, twofold dilutions of meropenem with each chelator were made in Cation-adjusted Mueller Hinton Broth (CAMHB) in a 96-well microtiter plate. A 0.5 McFarland-standardized bacterial inoculum was added to each well to obtain a final volume of 100 µL per well. Thereafter, plates were incubated at 37 °C for 18 h under aerobic conditions. The checkerboard assays were performed in triplicate. The MIC was determined as the lowest concentration at which no visible growth was present. The fractional inhibitory concentration index (FICI) was calculated for each combination according to the equation FICI = FICa (MIC of drug A in combination/MIC of drug A alone) + FICb (MIC of drug B in combination/MIC of drug B alone). The FICI was interpreted as follows: synergy, FICI ≤ 0.5; additive 0.5–1; indifference, […] FICI < 4; and antagonism, FICI ≥ 4 [61].

[2] = tested on: Escherichia coli AUS 271 (NDM-1); assay: MIC, broth microdilution and checkerboard assay; format: cell-based
Experimental: as §1, §2

[3] = tested on: Escherichia coli BM 14 (VIM-1); assay: MIC, broth microdilution and checkerboard assay; format: cell-based
Experimental: as §1, §2

[4] = tested on: Escherichia coli TWA (IMP-8); assay: MIC, broth microdilution and checkerboard assay; format: cell-based
Experimental: as §1, §2

[5] = tested on: Klebsiella pneumoniae DIH (VIM-19); assay: MIC, broth microdilution and checkerboard assay; format: cell-based
Experimental: as §1, §2

[6] = tested on: Klebsiella pneumoniae ENNES (VIM-1); assay: MIC, broth microdilution and checkerboard assay; format: cell-based
Experimental: as §1, §2

[7] = tested on: Klebsiella pneumoniae TWA (IMP-8); assay: MIC, broth microdilution and checkerboard assay; format: cell-based
Experimental: as §1, §2

[8] = tested on: Providencia Rettgeri IR38 (NDM-1); assay: MIC, broth microdilution and checkerboard assay; format: cell-based
Experimental: as §1, §2

[9] = tested on: Serratia marcescens (IMP-11); assay: MIC, broth microdilution and checkerboard assay; format: cell-based
Experimental: as §1, §2

[10] = tested on: Serratia marcescens BM 20 (VIM-2); assay: MIC, broth microdilution and checkerboard assay; format: cell-based
Experimental: as §1, §2

[11] = tested on: K. pneumoniae NDM; assay: Murine thigh infection model; format: in vivo, Klebsiella pneumoniae; settings: neutropenic BALB/c mice, 100 mg/kg IP every 2 h
Experimental: A murine thigh infection model described by Michail et al. was performed with minor modifications. Male Bragg inbred albino c-strain (BALB/c) mice weighing 20–25 g (n = 90) were used in this study. Each of the three groups constituted n = 30 mice, with n = 6 mice receiving treatment every two hours. Prior to infection, mice were IP treated with 150 mg/kg cyclophosphamide on day one and 100 mg/kg on day four of the trial. This was performed to induce neutropenia in the mice. Neutropenia was confirmed by a neutrophil count of <100/mm^3. On day five of the trial, 0.1 mL inoculum containing 10^6–10^8 cfu/mL of K. pneumoniae NDM were IM injected into the right thigh of the mice to initiate infection. Meropenem monotherapy, BP2 + meropenem combination therapy, or normal saline was administered every two hours in an eight-hour treatment period. Mice were euthanized by isoflurane overdose at 2 h, 4 h, 6 h and 8 h post dosing. The right thigh muscle was then aseptically removed and homogenized in 5 mL PBS. Homogenates were spread onto Mueller–Hinton agar and MacConkey agar plates, followed by incubation at 35 °C for 24 h and enumeration of the cfu/mL.

[12] = MTT cell viability assay; format: cell-based, human; settings: human, HepG2 cells, 6 h, read-out: IC50 cytotoxicity
Experimental: (§3) HepG2 cells were cultured in 25 mL cell culture flasks using Eagle’s minimum essentials medium (EMEM) supplemented with 10% fetal bovine serum, 1% pen-strep-fungizone and 1% L-glutamine, maintained in a humidified incubator (37 °C, 5% CO2) until approximately 80% confluence.
(§4) The MTT assay was one of the methods used to determine in vitro cell viability of BP on HepG2 cells. HepG2 cells (15,000 cells/well) were seeded into a 96-well microtiter plate and allowed to adhere overnight (37 °C, 5% CO2). Thereafter, the cells were incubated (37 °C, 5% CO2) with a range of BP concentrations (0, 1, 8, 10, 50, 100 and 200 μg/mL) in triplicate for 6 h. After the 6 h incubation, the cells were washed with 0.1 M phosphate-buffered saline (PBS) and incubated with MTT salt solution (5 mg/mL in 0.1 M PBS) and 100 μL CCM for 4 h (37 °C, 5% CO2). The MTT salt solution was removed, and DMSO (100 μL/well) was added and incubated for 1 h. The optical density was measured using a spectrophotometer (Bio-Tek μQuant) at 570/690 nm. Results are expressed as % cell viability versus BP2 concentration (μg/mL).

[13] = tested on: HepG2 cells; assay: MTT cell viability assay; format: cell-based, human
Experimental: as §3, §4

[14] = tested on: HepG2 cells; assay: LDH membrane leakage assay; format: cell-based, human
Experimental: as §3
The LDH assay was used to assess membrane damage of HepG2 cells. Supernatant collected from control and BP2 treated cells were centrifuged (400× g, 24 °C, 10 min) and dispensed (100 μL/well) in triplicate into a 96-well microtiter plate. LDH reagent (100 μL, 11644793001, Sigma Aldrich, Schnelldorf, Germany) was added to each well. The plate was incubated for 30 min at room temperature in the dark. Absorbance was read using a spectrophotometer (Bio-Tek μQuant,) at […]. Results are represented as relative fold change compared to untreated control.

## C[C@@H](O)[C@H]1C(=O)N2C(C(=O)O)=C(S[C@@H]3CN[C@H](C(=O)N(C)C)C3)[C@H](C)[C@H]12 [Meropenem]
[1]; E. cloacae KAR VIM-1, alone, read-out: MIC MEM Alone
  MIC: 4 µg/mL
[2]; E. coli AUS 271 NDM-1, alone, read-out: MIC MEM Alone
  MIC: > 128 µg/mL
[3]; E. coli BM 14 VIM-1, alone, read-out: MIC MEM Alone
  MIC: 32 µg/mL
[4]; E. coli TWA IMP-8, alone, read-out: MIC MEM Alone
  MIC: 8 µg/mL
[5]; K. pneumoniae DIH VIM-19, alone, read-out: MIC MEM Alone
  MIC: 32 µg/mL
[6]; K. pneumoniae ENNES VIM-1, alone, read-out: MIC MEM Alone
  MIC: > 32 µg/mL
[7]; K. pneumoniae TWA IMP-8, alone, read-out: MIC MEM Alone
  MIC: 8 µg/mL
[8]; P. Rettgeri IR38 NDM-1, alone, read-out: MIC MEM Alone
  MIC: 32 µg/mL
[9]; S. marcescens IMP-11, alone, read-out: MIC MEM Alone
  MIC: > 32 µg/mL
[10]; S. marcescens BM 20 VIM-2, alone, read-out: MIC MEM Alone
  MIC: > 32 µg/mL
[11]; treatment time 2 h
  Best Log10 Cfu/ml: 7.2 Log10 Cfu/ml
  Mean Log10 Cfu/ml: 6.8 Log10 Cfu/ml
[11]; treatment time 4 h
  Best Log10 Cfu/ml: 8 Log10 Cfu/ml
  Mean Log10 Cfu/ml: 8.3 Log10 Cfu/ml
[11]; treatment time 6 h
  Best Log10 Cfu/ml: 8.3 Log10 Cfu/ml
  Mean Log10 Cfu/ml: 8.4 Log10 Cfu/ml
[11]; treatment time 8 h
  Best Log10 Cfu/ml: 8.3 Log10 Cfu/ml
  Mean Log10 Cfu/ml: 8.2 Log10 Cfu/ml

## CON=C(C(=O)NC1C(=O)N2C(C(=O)O)=C(COC(C)=O)CSC12)c1csc(NC(=O)CC(C(=O)OC)N2CCN(CC(=O)O)CCN(CC(=O)O)CC2)n1 (stereo in doubt) [BP2]
[1]; read-out: MIC BP2 Alone
  MIC: > 256 µg/mL
[2]; read-out: MIC BP2 Alone
  MIC: > 256 µg/mL
[3]; read-out: MIC BP2 Alone
  MIC: > 256 µg/mL
[4]; read-out: MIC BP2 Alone
  MIC: > 256 µg/mL
[5]; read-out: MIC BP2 Alone
  MIC: > 256 µg/mL
[6]; read-out: MIC BP2 Alone
  MIC: > 256 µg/mL
[7]; read-out: MIC BP2 Alone
  MIC: > 256 µg/mL
[8]; read-out: MIC BP2 Alone
  MIC: > 256 µg/mL
[9]; read-out: MIC BP2 Alone
  MIC: > 256 µg/mL
[10]; read-out: MIC BP2 Alone
  MIC: > 256 µg/mL
[12]
  IC50 at 6 h: 62 µg/mL (≈ 76.3 µM)
[13]; 1 µg/mL and 10 µg/mL
  Cell viability compared to the control: significantly increased
[13]; 200 µg/mL
  Cell viability compared to the control: significant decrease
[13]; 50–100 µg/mL
  Cell viability compared to the control: not significantly altered
[14]; HepG2, 1 µg/mL
  LDH levels: remained unaffected
[14]; HepG2, 8 µg/mL–200 µg/mL
  LDH membrane leakage: significantly decreased
[14]; HepG2, all concentrations tested
  Cell membrane integrity (LDH leakage): not disrupted
